Source: patent US20080070971A1, “Medical Use of Bilirubin and its Structural Analogues” (priority 2006, published 2008)

Legend:
[1] = system: Pancreas phospholipase A2 (PLA2); assay: Phospholipase A2 FlashPlate inhibition assay; format: biochemical; details: bilirubin concentration of about 10 mg/L; pH=7.2 (FIG. 1)
Protocol: Pancreas phospholipase A2 (PLA2) (SigmaAldrich Cat.# P223), acetylcholinesterase (SigmaAldrich cat.# C0663), acetyleholine chloride (Cat.# A6625), and bilirubin (SigmaAldrich #B4126) were purchased from SigmaAldrich. Bilirubin solution was prepared freshly by dissolving it in dimethyl sulfoxide (DMSO) and further dilutions were made in Tris-HCl buffer (pH 7.4). The sPLA2 activity was determined by the FlashPlate assay procedure described by Do and Kasila (American Biotechnology Laboratory, June 2001, P 51-52). Briefly, phospholipid flash plates (PerkinElmer Life Sciences, cat. #SMP108) were coated with 0.2 mL/well of the substrate of 1-steroyl 2-arachidonyl phosphatidylcholine (PerkinElmer Life Sciences, cat. #NE872). The plate was covered and incubated overnight at room temperature. After the incubation, the wells were aspirated prior to use in the PLA2 assay. The substrate assay buffer contained 50 mM tris-HCl (pH=7.3), 0.2 M NaCl, 0.1 mM CaCl2, 0.1 mM EDTA, 0.02% deoxycholate, 10-50 units/mL PLA2, and final volume 200 μL/well. The bound radioactivity was determined by counting the FlashPlate.

[2] = molecular target: T1, cholesterol esterase (CHE) (Homo sapiens, UniProt P19835); assay: Cholesterol esterase inhibition; format: biochemical; details: bilirubin concentration of about 10 mg/L; pH=7.2 (FIG. 1)
T1 sequence (P19835 21-753): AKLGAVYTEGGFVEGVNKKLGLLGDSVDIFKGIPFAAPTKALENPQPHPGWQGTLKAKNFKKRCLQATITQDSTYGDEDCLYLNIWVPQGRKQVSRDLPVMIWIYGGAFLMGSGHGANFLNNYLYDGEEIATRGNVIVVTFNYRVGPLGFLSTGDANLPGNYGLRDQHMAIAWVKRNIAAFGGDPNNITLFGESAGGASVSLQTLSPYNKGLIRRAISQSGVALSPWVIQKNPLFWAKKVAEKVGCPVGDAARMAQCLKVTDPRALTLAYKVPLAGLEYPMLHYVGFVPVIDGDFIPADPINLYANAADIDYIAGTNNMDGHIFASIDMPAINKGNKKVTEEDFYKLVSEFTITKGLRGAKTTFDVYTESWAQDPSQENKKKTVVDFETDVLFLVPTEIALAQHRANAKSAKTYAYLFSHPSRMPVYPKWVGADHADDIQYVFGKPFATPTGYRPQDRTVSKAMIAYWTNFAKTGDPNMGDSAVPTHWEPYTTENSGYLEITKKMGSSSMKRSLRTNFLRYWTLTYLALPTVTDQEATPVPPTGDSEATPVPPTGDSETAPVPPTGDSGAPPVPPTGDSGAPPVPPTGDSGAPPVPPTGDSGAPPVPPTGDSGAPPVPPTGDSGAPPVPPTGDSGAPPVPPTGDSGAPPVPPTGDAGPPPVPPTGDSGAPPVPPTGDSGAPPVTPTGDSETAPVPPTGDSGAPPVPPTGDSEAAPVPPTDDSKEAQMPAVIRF

acetylcholinesterase = molecular target: T2, acetylcholinesterase (Homo sapiens, UniProt P22303); assay: Acetylcholinesterase activity by choline release; format: biochemical; details: at high bilirubin concentrations (FIG. 2)
T2 construct: purchased SigmaAldrich C0663
Protocol: Since bilirubin itself gives an absorption peak at 460 nm, which interferes with the cholinesterase assay procedures in many standard assay kits, a modified method was developed. The acetylcholinesterase activity was determined by measuring the quantity of choline release from acetylcholine:
Briefly, after 30 minutes reaction in the above acetylcholine-enzyme solution at pH=7.8, in the absence or presence of bilirubin, the reaction was stopped by heating to about 100° C. in boiling water. The solution was then cooled down to 37° C. Residual bilirubin was neutralized by titrating with H2O2. The amount of choline was then determined by the following choline oxidase assay method provided by SigmaAldrich (Cat.# C5896): […]

cyclooxygenase (COX) = assay: Cyclooxygenase (COX) inhibition; format: biochemical, human
Protocol: The activity of COX was determined by the procedure described in Assay Design's Enzyme Immunometric Assay (EIA) kit (Assay Design Inc., TiterZyme EIA cat.#900-094). Briefly, the kit uses a monoclonal antibody to human COX-II immobilized on a microtiter plate to bind the human COX in the standard or sample. After a short incubation the excess standard or sample is washed out and a rabbit polyclonal antibody to human COX labeled with the enzyme. Horseradish peroxidase is added. This labeled antibody binds to the human COX captured on the plate. After a short incubation the excess labeled antibody is washed out and substrate is added. The substrate reacts with the labeled antibody bound to the human COX captured on the plate. After a short incubation, the enzyme reaction is stopped and the color generated is read at 450 nm. The measured optical density is directly proportional to the concentration of human COX.
Purified cyclooxygenases (COX) were obtained from Kayman Chemical Company and used to examine the inhibitory effect of bilirubin with arachidonic acid as the substrate. High purity of bilirubin (SigmaAldrich #B4126), biliverdin (Frontier Scientific Inc., Cat. B655-9) and hemin (SigmaAldrich, #51280) were used as received.

[3] = system: malate dehydrogenase (MDH); assay: Malate dehydrogenase inhibition; format: biochemical; details: concentration equivalent to the moderate level of serum bilirubin (FIG. 7)
[4] = system: histone deacetylase (HDAC), HeLa cell lysate; assay: Histone deacetylase (HDAC) assay; format: biochemical
Protocol: Assay of histone decaetylase (HDAC). The activity of HDAC was measured according to the procedure provided by SigmaAldrich (Histone Deacetylase Assay Kit, Cat.# CS1010). HeLa cel lysate provided by the assay kit was used as a source for HDAC activity in the inhibition testing.

T2 sequence (P22303 32-617 isoform P22303-2 limits assumed): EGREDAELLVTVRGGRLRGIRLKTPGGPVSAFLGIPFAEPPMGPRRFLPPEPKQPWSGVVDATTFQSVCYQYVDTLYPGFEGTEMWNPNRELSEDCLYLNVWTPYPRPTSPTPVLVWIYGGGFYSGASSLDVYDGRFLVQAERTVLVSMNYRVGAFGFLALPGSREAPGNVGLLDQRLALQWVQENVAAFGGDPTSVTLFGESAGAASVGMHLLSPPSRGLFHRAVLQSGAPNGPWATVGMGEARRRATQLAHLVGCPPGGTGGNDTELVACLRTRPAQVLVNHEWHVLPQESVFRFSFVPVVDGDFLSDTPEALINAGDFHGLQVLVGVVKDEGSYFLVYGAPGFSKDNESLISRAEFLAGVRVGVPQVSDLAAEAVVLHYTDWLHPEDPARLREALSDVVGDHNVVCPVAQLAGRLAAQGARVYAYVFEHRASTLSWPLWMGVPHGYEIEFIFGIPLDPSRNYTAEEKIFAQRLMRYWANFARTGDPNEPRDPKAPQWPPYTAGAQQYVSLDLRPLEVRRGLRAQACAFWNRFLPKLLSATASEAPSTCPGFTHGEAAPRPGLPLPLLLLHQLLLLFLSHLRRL

C=CC1=C(C)C(=Cc2[nH]c(Cc3[nH]c(C=C4NC(=O)C(C)=C4C=C)c(C)c3CCC(=O)O)c(CCC(=O)O)c2C)NC1=O [bilirubin, 2,7,13,17-tetramethyl-1,19-dioxo-3,18-divinyl-1,10,19,22,23,24-hexahydro-21H-biline-8,12-dipropanoic acid]
inhibition of the PLA2 activity [1]: about 80%
inhibition at 10 µg/mL [2]: ~50%
acetylcholinesterase activity (acetylcholinesterase): completely eliminated
inhibition of the COX activity (cyclooxygenase (COX); 10 mg/L bilirubin (FIG. 3)): Up to 70%
reducing COX activity (comparison) (cyclooxygenase (COX); concentration of 10 mg/L (FIG. 4)): effective in reducing COX activity
inhibition of malate dehydrogenase [3]: strongly suppressed
50% inhibition concentration (IC50) ([4]; substrate concentration 5 μM): 16.5 µg/mL
50% inhibition concentration (IC50) ([4]; substrate concentration 50 μM): 40 µg/mL
